Laboratory results published in patent publication US20190008850A1, “METHOD OF TREATING SCHIZOPHRENIA” (priority 2015, published 2019).
Structures can show the parent of a compound that is named as a salt.

System: individuals with schizophrenia
Test: Therapeutic administration of dextromethorphan in schizophrenia (summary statement)
Format: in vivo, human

COc1ccc2c(c1)[C@]13CCCC[C@@H]1[C@H](C2)N(C)CC3 [dextromethorphan, morphinan, 3-methoxy-17-methyl-, (9a, 13a, 14a)-hydrobromide monohydrate]
progression of schizophrenia (administered at first break): mitigated the progression of schizophrenia, and in some cases, reversed the disorder | positive symptoms, in particular expressions of hostility (in vivo): appears to also reduce some positive symptoms | frequency and intensity of negative symptoms (individuals with established schizophrenia diagnoses): significantly reduced | negative symptoms of schizophrenia (therapeutic administration): substantially reduces
